According to patent publication US8658592B2, “Biologically active peptides and their new uses” (priority 2005, dated 2014):
Marks after values point to notes of the source that are not given here. Ends that are not written are not given here. Peptide text beside a SMILES is read from it.

Columns and labels:
[1] = system: human hepatitis B virus (HBV), 2.2.15 cell line; test: Test 1: inhibition of HBsAg and HBeAg in 2.2.15 cells (ELISA); assay type: cell-based; conditions: 400 μg/ml
Protocol: 2.2.15 cells at log phase were harvested and adjusted to 2×10^6/ml with MEM (containing 10% fetal bovine serum, […]). The suspension was inoculated on a 24-well culture plate with 1.5 ml per well, and incubated at 37° C., 5% CO2 for 48 hours for attachment. The peptides were added to the final concentration of 400 μg/ml with 3 parallel wells per sample. One set of blank control (3 wells) was also prepared, in which the peptide was replaced with culture medium. The plate was incubated at 37° C. for 4 days, the culture medium was then exchanged with freshly prepared medium (of the same composition as the original), and the plate was incubated for a further 4 days. By the end of incubation, the supernatants of the culture were collected, and the titers of HBsAg and HBeAg were determined by ELISA method according to the instruction of the detection kit manufacturer.

[2] = system: human hepatitis B virus (HBV), 2.2.15 cell line; test: Test 2: inhibition of HBV-DNA in 2.2.15 cells (fluorescence quantitative PCR); assay type: cell-based; conditions: 160 μg/ml
Protocol: The preparation and incubation of cell suspension was repeated as in test 1 above, but at the peptide concentration of 160 μg/ml.

[3] = system: carrageenin induced foot swelling; test: carrageenin induced foot swelling in rats; assay type: in vivo, Wistar rats
Protocol: Wistar rats were divided randomly into DXM group (0.2 mg/kg/day), saline control group (1 ml/day), and three dosages of CMS-030 groups (2, 10, 20 μg/ml/day). All of the drugs were diluted to 0.5 ml with saline, and were administered intraperitoneally (i.p) daily. Two weeks after drug administration, 0.15 ml of 1% carrageenin saline solution was applied to the right foot by subcutaneous injection. 0.5 hr later, the circumference of right foot was measured precisely, and foot swelling was calculated by subtracting the pre-challenge circumference from the post-challenge value Inhibition index (%)=(foot swelling of saline control group−foot swelling of drug group)/foot swelling of saline control group×100%.

[4] = system: duck hepatitis B virus (DHBV); test: Chongqing duck hepatitis B animal model: serum DHBV DNA and DHBsAg; assay type: in vivo, Chongqing ducks
Protocol: CMS-017 dissolved in saline was applied to Chongqing duck hepatitis B animal model by intramuscular injection for 28 days. The serum levels of DHBV DNA and DHBsAg (duck hepatitis B surface antigen) were observed by serum dot-blot hybridization and ELISA respectively and compared with blank control.
0.1 ml DHBV DNA positive serum (5×10^7 copies/ml) was inoculated into the abdominal cavity of one-day old Chongqing ducks to set up the hepatitis animal model. 10 days after inoculation, blood samples were collected from the external jugular vein and success of infection was confirmed by dot-blot hybridization with DHBV DNA probe labeled with digoxi^[3].
2) CMS-017 group (n=12): 200 μg/kg/day CMS-017 (dissolved in 1 ml normal saline) applied by intramuscular injection, once per day.
The treatment lasted for 4 weeks, and observation continued for another one week after termination of treatment. 1 ml blood samples were drawn from the external jugular vein on days 0, 7, 14, 21, 28, and 35 from the start of treatment. The sera were isolated^[4] and stored at −20° C. until analysis.
DHBV DNA probe was fluorescent-labeled according to the labeling kit protocol from the manufacturer (Roche Co.). Duck sera were dot-blotted (2 dot per sample) onto nitrocellulose membrane and hybridized with fluorescent-labeled probe for DHBV DNA quantitation^[3]. DHBV DNA 40 μl+DHBsAg 100 μl was used as internal standard. CDP-Star fluorimetry reagent was used for amplification of the fluorescence. Vuego Scan (Brisa-620st) scanner was used for film scanning, and Discovery Series Quantity One software for quantitative analysis of the blots. The blot value was described as “volume” (volume=intensity×mm^2)
DHBsAg level was determined by ELISA method^[5-8], and the O.D value was obtained by ELISA reader (Bio-TEK Co.) at 490 nm.

[5] = human hepatitis B virus, 2.2.15 cell line, 48 h
[6] = 0.5 hr after carrageenin, 0.2 mg/kg/d
[7] = Week 5 (one week after termination of treatment)

In the case of `C[C@H](N)C(=O)N[C@@H](C)C(=O)N[C@@H](Cc1ccccc1)C(=O)O` [CMS-023, Ala Ala Phe] (H-Ala-Ala-Phe-OH; N-terminus and C-terminus assumed), the “Inhibition ratio to HBeA” value [1, 5] is reported as 53.7%*, the “Inhibition ratio to HBsA:” value [1, 5] is reported as 58.4%* and the “% HBV-DNA inhibition” value ([2]; human hepatitis B virus, 2.2.15 cell line) is reported as 70.8%*.
`C[C@@H]1C[C@H]2[C@@H]3CCC4=CC(=O)C=C[C@]4(C)[C@@]3(F)[C@@H](O)C[C@]2(C)[C@@]1(O)C(=O)CO` [DXM, Dexamethasone] was tested, and the “Inhibition Index 0.5 hr” value [3, 6] was 63.0** %, the “Swelling 0.5 hr” value [3, 6] was 2.74 ± 0.10 cm and the Pre-challenge circumference ([3]; right foot, 0.2 mg/kg/d i.p., two weeks) was 2.49 ± 0.05 cm.
In the case of “IVTNTT [CMS-017, Ile-Val-Thr-Asn-Thr-Thr]”, the “Serum DHBV DNA titer” value ([4]; Pre-treatment, 200 μg/kg/day i.m. group) is reported as 2207.0 ± 237.5 volume, the “Serum DHBsAg O.D. value” ([4]; Pre-treatment, 200 μg/kg/day i.m. group, 490 nm) is reported as 0.928 ± 0.402 and the “Serum DHBV DNA titer” value ([4]; Week 1, 200 μg/kg/day i.m.) is reported as 1991.8 ± 378.9 volume. The “Serum DHBsAg O.D. value” ([4]; Week 1, 200 μg/kg/day i.m.) was 0.761 ± 0.328, the “Serum DHBV DNA titer” value ([4]; Week 2, 200 μg/kg/day i.m.) was 1925.0 ± 549.9 volume and the “Serum DHBsAg O.D. value” ([4]; Week 2, 200 μg/kg/day i.m.) was 0.668 ± 0.310. For the same molecule, the “Serum DHBV DNA titer” value ([4]; Week 3, 200 μg/kg/day i.m.) was 1743.9 ± 555.0 volume, the “Serum DHBsAg O.D. value” ([4]; Week 3, 200 μg/kg/day i.m.) was 0.551 ± 0.268 and the “Serum DHBV DNA titer” value ([4]; Week 4, 200 μg/kg/day i.m.) was 1544.9 ± 389.7 volume. For the same molecule, the “Serum DHBsAg O.D. value” ([4]; Week 4, 200 μg/kg/day i.m.) was 0.479 ± 0.279, the “Serum DHBV DNA titer” value [4, 7] was 1742.7 ± 437.0 volume and the “Serum DHBsAg O.D. value” [4, 7] was 0.488 ± 0.182. For the same molecule, the “rebound of serum DHBV DNA and DHBsAg” value ([4]; upon discontinuation of treatment for 7 days) was “rebound was not observed”, the “Inhibition ratio to HBeA” value ([1]; 2.2.15 cells, 8 days) was 62.2%* and the “Inhibition ratio to HBsA:” value ([1]; 2.2.15 cells, 8 days) was 68.6%*. For the same molecule, the “% HBV-DNA inhibition” value ([2]; 2.2.15 cells) was 90.8%*.
